Reference: the supplement of paper PMC4862054

What was measured:
Details in all cases: 72 h
HCC1599 [1] = tested on: HCC1599
Protocol: (§1)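 Drug sensitivity and resistance testing (DSRT) of breast cancer cell lines in 384-well plates, 5 concentrations in 10-fold dilutions over a compound-specific 10,000-fold range. After 72 h, cytotoxicity was read by CellTox Green fluorescence and viability by CellTiter-Glo luminescence (multiplexed), normalised to DMSO and benzethonium chloride controls. EC50 is the inflection point of the fitted dose-response curve (bottom asymptote free, so it can be relative for partial curves) and is censored at the highest tested concentration. Rows with DSS 0 (no meaningful response) were excluded.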

Hs578T [2] = tested on: Hs578T
Protocol: as §1

MDA-MB-231 [3] = tested on: MDA-MB-231
Protocol: as §1

CAL-85-1 [4] = tested on: CAL-85-1
Protocol: as §1

MFM-223 [5] = tested on: MFM-223
Protocol: as §1

MCF-10A [6] = tested on: MCF-10A
Protocol: as §1

BT-474 [7] = tested on: BT-474
Protocol: as §1

CAL-148 [8] = tested on: CAL-148
Protocol: as §1

MDA-MB-468 [9] = tested on: MDA-MB-468
Protocol: as §1

HDQ-P1 [10] = tested on: HDQ-P1
Protocol: as §1

HCC1599 [11] = tested on: HCC1599; remark: listed apart in the source
Procedure, shortened: (§2)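 Seeding of breast cancer cell lines (20 µl suspension) was done into 384-well plates pre-loaded with compound at 5 concentrations, 10-fold apart, covering a compound-specific 10,000-fold range. The plates were incubated for 72 h, read for CellTox Green fluorescence (485/520 nm), and then read for CellTiter-Glo luminescence after 10 min at room temperature. Every plate was normalised to 0.1 % DMSO and a positive kill control. Curve fitting gave the EC50, censored at the top concentration.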

HCC1937 = tested on: HCC1937
Procedure, shortened: as §2

Hs578T [12] = tested on: Hs578T; remark: listed apart in the source
Procedure, shortened: as §2

MDA-MB-231 [13] = tested on: MDA-MB-231; remark: listed apart in the source
Procedure, shortened: as §2

SK-BR-3 = tested on: SK-BR-3
Procedure, shortened: as §2

CAL-85-1 [14] = tested on: CAL-85-1; remark: listed apart in the source
Procedure, shortened: as §2

MFM-223 [15] = tested on: MFM-223; remark: listed apart in the source
Procedure, shortened: as §2

MCF-10A [16] = tested on: MCF-10A; remark: listed apart in the source
Procedure, shortened: as §2

MDA-MB-453 = tested on: MDA-MB-453
Procedure, shortened: as §2

BT-474 [17] = tested on: BT-474; remark: listed apart in the source
Procedure, shortened: as §2

HCC1143 = tested on: HCC1143
Procedure, shortened: as §2

CAL-148 [18] = tested on: CAL-148; remark: listed apart in the source
Procedure, shortened: as §2

BT-549 = tested on: BT-549
Procedure, shortened: as §2

CAL-51 = tested on: CAL-51
Procedure, shortened: as §2

MDA-MB-468 [19] = tested on: MDA-MB-468; remark: listed apart in the source
Procedure, shortened: as §2

CAL-120 = tested on: CAL-120
Procedure, shortened: as §2

MDA-MB-436 = tested on: MDA-MB-436
Procedure, shortened: as §2

HDQ-P1 [20] = tested on: HDQ-P1; remark: listed apart in the source
Procedure, shortened: as §2

DU-4475 = tested on: DU-4475
Procedure, shortened: as §2

EC50, CellTiter-Glo (HCC1599 [11]): 14.8 nM | EC50, CellTiter-Glo (HCC1937): 21.9 nM | EC50, CellTiter-Glo (MDA-MB-231 [13]): 5.9 nM | EC50, CellTiter-Glo (SK-BR-3): 6.99 nM | EC50, CellTiter-Glo (MDA-MB-453): 26.1 nM | EC50, CellTiter-Glo (BT-474 [17]): 12.9 nM | EC50, CellTiter-Glo (HCC1143): 12 nM | EC50, CellTiter-Glo (BT-549): 13.9 nM | EC50, CellTiter-Glo (MDA-MB-468 [19]): 23.7 nM | EC50, CellTiter-Glo (MDA-MB-436): 9 nM
SMILES: CCc1cnn2c(NCc3ccc[n+]([O-])c3)cc(N3CCCC[C@H]3CCO)nc12 [Dinaciclib]
EC50, CellTox Green (HCC1599 [1]): 14.1 nM | EC50, CellTox Green (Hs578T [2]): 26.4 nM | EC50, CellTox Green (MDA-MB-231 [3]): 8.07 nM | EC50, CellTox Green (CAL-85-1 [4]): 22 nM | EC50, CellTox Green (MFM-223 [5]): 22 nM | EC50, CellTox Green (MCF-10A [6]): 77.4 nM | EC50, CellTox Green (BT-474 [7]): 13.2 nM | EC50, CellTox Green (CAL-148 [8]): 28.3 nM | EC50, CellTox Green (MDA-MB-468 [9]): 17.1 nM | EC50, CellTox Green (HDQ-P1 [10]): 8.27 nM | EC50, CellTiter-Glo (Hs578T [12]): 16 nM | EC50, CellTiter-Glo (CAL-85-1 [14]): 5.42 nM | EC50, CellTiter-Glo (MFM-223 [15]): 21.2 nM | EC50, CellTiter-Glo (MCF-10A [16]): 45.8 nM | EC50, CellTiter-Glo (CAL-148 [18]): 26.9 nM | EC50, CellTiter-Glo (CAL-51): 12.8 nM | EC50, CellTiter-Glo (CAL-120): 17.9 nM | EC50, CellTiter-Glo (HDQ-P1 [20]): 12.3 nM | EC50, CellTiter-Glo (DU-4475): 20.6 nM
